Measured values reported in US20110281728A1, “METHOD FOR CONTROLLING COLORATION IN TABLE GRAPES BASED ON OLIGOGALACTURONIDES” (CENTRO DE INVESTIGACION EN ALIMENTACION Y DESARROLLO A.C., priority 2008, published 2011).
Marks after values point to notes of the source that are not given here.

Tested on: red table grapes
Assay: Grape color in Color Index units for Red Grapes (CIRG) after application to grape plants
Format: in vivo, Vitis vinifera
Conditions: 500 ppm
Experimental: Control of coloration by means of OGAs determines a new use of these polymers which ensure a controlled ripening and effective coloring, which provide a high quality in table grapes. OGAs were obtained by enzymatic hydrolysis of polygalacturonic acid (PGA), stopping the reaction by heating to 100° C. for 30 minutes. Partial purification was performed by using an ultra-filtration equipment to recover OGAs in the range of 5-10 KDa. For the comparison of the degree of polymerization of 7-20 GP, these were compared with external standards. OGAs were frozen using liquid nitrogen in order to obtain a powdered mixture, which was applied to grape plants in a particular proportion. Six treatments were used: three using different concentrations of OGAs, methyl jasmonate (MeJa), Ethrel and a control (water).
To determine the best way to control the red color in grapes, a series of experiments was performed, wherein doses of the mixture, application times, application conditions, and periods of application were tested, finding that the results are obtained: when the mixture was applied in an amount of 0.25 L per plant during the morning at a temperature of 18-20° C. for a period of two days during the veraison period.

Row | SMILES | grape color (CIRG) (1 day post-application) | grape color (CIRG) (5 days post-application) | grape color (CIRG) (10 days post-application) | grape color (CIRG) (15 days post-application) | grape color (CIRG) (20 days post-application)
1 | CC/C=C\CC1C(=O)CCC1CC(=O)OC (stereo not shown) [MeJa, methyl jasmonate] | 1.13^a CIRG | 2.20^a CIRG | 3.41^a CIRG | 3.20^a CIRG | 3.31^b CIRG
2 | O=P(O)(O)CCCl [Ethrel, 2-chloroethyl phosphonic acid] | 1.17^a CIRG | 2.44^a CIRG | 2.96^a CIRG | 3.37^a CIRG | 3.76^a CIRG
